Measurements reported in patent US10077241B2 (Janssen Pharmaceutica NV, priority 2014, dated 2018).

What was measured:
TGR5 (STC1 cell line) = biological target: T1, TGR5 (STC1 cell line) (Mus musculus, UniProt Q80SS6); test: STC1 cAMP Agonist EC50 Determination
T1 sequence (Q80SS6 1-329): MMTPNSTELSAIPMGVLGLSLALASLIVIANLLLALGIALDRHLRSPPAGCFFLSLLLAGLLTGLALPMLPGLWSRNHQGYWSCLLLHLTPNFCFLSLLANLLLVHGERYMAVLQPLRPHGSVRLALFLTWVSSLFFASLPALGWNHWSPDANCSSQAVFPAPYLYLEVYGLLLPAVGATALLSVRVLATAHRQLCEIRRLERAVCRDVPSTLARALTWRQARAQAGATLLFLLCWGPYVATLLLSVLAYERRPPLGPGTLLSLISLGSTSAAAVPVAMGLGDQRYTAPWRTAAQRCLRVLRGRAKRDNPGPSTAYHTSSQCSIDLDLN

[1] = biological target: T2, TGR5 (NCI-H716 cell line) (Homo sapiens, UniProt Q8TDU6); test: NCI-H716 cAMP Agonist EC50 Determination
T2 sequence (Q8TDU6 1-330): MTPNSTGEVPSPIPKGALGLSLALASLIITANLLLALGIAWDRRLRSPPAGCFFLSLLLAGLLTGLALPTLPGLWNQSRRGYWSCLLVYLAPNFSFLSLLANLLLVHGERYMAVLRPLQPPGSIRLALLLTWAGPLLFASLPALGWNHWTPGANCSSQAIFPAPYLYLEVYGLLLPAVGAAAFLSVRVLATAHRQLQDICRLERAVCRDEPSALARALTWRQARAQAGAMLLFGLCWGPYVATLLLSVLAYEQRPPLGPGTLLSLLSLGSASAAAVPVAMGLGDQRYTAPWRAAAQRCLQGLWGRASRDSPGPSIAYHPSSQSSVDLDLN

EC50 (TGR5 (STC1 cell line)) [µM]	EC50 [1] [µM]	SMILES
0.13	> 50	COc1cc(C2CCCc3nc(SCc4c(F)cncc4Br)n(-c4ccc(F)cc4)c32)ccc1Cl (centres unmarked) [Example 56, 2-((3-bromo-5-fluoropyridin-4-yl)methylthio)-7-(4-chloro-3-methoxyphenyl)-1-(4-fluorophenyl)-4,5,6,7-tetrahydro-1H-benzo[d]imidazole trifluoroacetic acid]
0.65	> 50	COc1cc(C2CCCc3nc(SCc4ncccn4)n(-c4ccc(F)cc4)c32)ccc1Cl (centres unmarked) [Example 57, 7-(4-chloro-3-methoxyphenyl)-1-(4-fluorophenyl)-2-[(pyrimidin-2-ylmethyl)sulfanyl]-4,5,6,7-tetrahydro-1H-1,3-benzodiazole trifluoroacetic acid]
1.1	> 50	COc1cc(C2CCCc3nc(SCc4sccc4Cl)n(-c4ccc(F)cc4)c32)ccc1Cl (centres unmarked) [Example 58, 2-((3-chlorothiophen-2-yl)methylthio)-7-(4-chloro-3-methoxyphenyl)-1-(4-fluorophenyl)-4,5,6,7-tetrahydro-1H-benzo[d]imidazole trifluoroacetic acid]
2.02	> 50	COc1cc(C2CCCc3nc(SCc4c(F)c[n+]([O-])cc4F)n(-c4ccc(F)cc4)c32)ccc1Cl (centres unmarked) [Example 59, 4-((7-(4-chloro-3-methoxyphenyl)-1-(4-fluorophenyl)-4,5,6,7-tetrahydro-1H-benzo[d]imidazol-2-ylthio)methyl)-3,5-difluoropyridine 1-oxide trifluoroacetic acid]
15.5	> 50	COc1cc(C2CCCc3nc(SCc4c(Br)cncc4Br)n(-c4ccc(F)cc4)c32)ccc1Cl (centres unmarked) [Example 60, 2-((3,5-dibromopyridin-4-yl)methylthio)-7-(4-chloro-3-methoxyphenyl)-1-(4-fluorophenyl)-4,5,6,7-tetrahydro-1H-benzo[d]imidazole]
3.89	> 50	COc1cc(C2CC(C)Cc3nc(SCc4c(F)cccc4Cl)n(-c4ccc(F)cc4)c32)ccc1Cl (centres unmarked) [Example 61, 7-(4-chloro-3-methoxyphenyl)-2-[[(2-chloro-6-fluorophenyl)methyl]sulfanyl]-1-(4-fluorophenyl)-5-methyl-4,5,6,7-tetrahydro-1H-1,3-benzodiazole]
0.15	5.34	COc1ccc(C2CCCc3nc(SCc4c(F)cc(C#N)cc4F)n(-c4ccc(F)cc4)c32)cc1OC (centres unmarked) [Example 64, 4-(((7-(3,4-dimethoxyphenyl)-1-(4-fluorophenyl)-4,5,6,7-tetrahydro-1H-benzo[d]imidazol-2-yl)thio)methyl)-3,5-difluorobenzonitrile]
3.75	> 50	COc1ccc(C2CCCc3nc(SCc4c(F)cc(C(=O)O)cc4F)n(-c4ccc(F)cc4)c32)cc1OC (centres unmarked) [Example 65, 4-(((7-(3,4-dimethoxyphenyl)-1-(4-fluorophenyl)-4,5,6,7-tetrahydro-1H-benzo[d]imidazol-2-yl)thi)methyl)-3,5-difluorobenzoic acid]
0.9	2.4	COCCOCCOCCOCCNC(=O)c1cc(F)c(CSc2nc3c(n2-c2ccc(F)cc2)C(c2ccc(OC)c(OC)c2)CCC3)c(F)c1 (centres unmarked) [Example 66, 4-(((7-(3,4-dimethoxyphenyl)-1-(4-fluorophenyl)-4,5,6,7-tetrahydro-1H-benzo[d]imidazol-2-yl)thio)methyl)-3,5-difluoro-N-(2,5,8,11-tetraoxatridecan-13-yl)benzamide]
0.5	8.34	COc1ccc(C2CCCc3nc(SCc4c(F)cc(OCCCl)cc4F)n(-c4ccc(F)cc4)c32)cc1OC (centres unmarked) [Example 67, 2-((4-(2-chloroethoxy)-2,6-difluorobenzyl)thio)-7-(3,4-dimethoxyphenyl)-1-(4-fluorophenyl)-4,5,6,7-tetrahydro-1H-benzo[d]imidazole]
7.39	22	COCCOCCOCCOCCNC(=O)c1cc(F)c(CSc2nc3c(n2-c2ccc(F)cc2)C(c2cc(OC)c(OC)cc2Br)CCC3)c(F)c1 (centres unmarked) [Example 68a, 4-(((7-(2-bromo-4,5-dimethoxyphenyl)-1-(4-fluorophenyl)-4,5,6,7-tetrahydro-1H-benzo[d]imidazol-2-yl)thio)methyl)-3,5-difluoro-N-(2,5,8,11-tetraoxatridecan-13-yl)benzamide]
28.6	> 50	COCCOCCOCCOCCNC(=O)c1cc(F)c(CSc2nc3c(n2-c2ccc(F)cc2)C(c2cc(OC)c(OC)c(Br)c2Br)CCC3)c(F)c1 (centres unmarked) [Example 68b, 4-(((7-(2,3-dibromo-4,5-dimethoxyphenyl)-1-(4-fluorophenyl)-4,5,6,7-tetrahydro-1H-benzo[d]imidazol-2-yl)thio)methyl)-3,5-difluoro-N-(2,5,8,11-tetraoxatridecan-13-yl) benzamide]
0.85	7.97	COc1ccc(C2CCCc3nc(SCc4c(F)cc(OCCN5CCCC5)cc4F)n(-c4ccc(F)cc4)c32)cc1OC (centres unmarked) [Example 69, 2-((2,6-difluoro-4-(2-(pyrrolidin-1-yl)ethoxy)benzyl)thio)-7-(3,4-dimethoxyphenyl)-1-(4-fluorophenyl)-4,5,6,7-tetrahydro-1H-benzo[d]imidazole]
1.91	> 50	COc1cccc(C2CCCc3nc(SCc4c(F)cncc4F)n(-c4ccc(F)cc4)c32)c1 (centres unmarked) [Example 71, 2-(((3,5-difluoropyridin-4-yl)methyl)thio)-1-(4-fluorophenyl)-7-(3-methoxyphenyl)-4,5,6,7-tetrahydro-1H-benzo[d]imidazole]
0.91	35.2	COc1cccc(C2CCCc3nc(SCc4c(F)cncc4F)n(-c4ccc(F)c(OC)c4)c32)c1 (centres unmarked) [Example 72, 2-(((3,5-difluoropyridin-4-yl)methyl)thio)-1-(4-fluoro-3-methoxyphen)-7-(3-methoxyphenyl)-4,5,6,7-tetrahydro-1H-benzo[d]imidazole]
1.53	47.5	COc1cc(C2CCCc3nc(SCc4c(F)cc(C#N)cc4F)n(-c4ccc(F)cc4)c32)ccc1F (centres unmarked) [Example 73, 3,5-difluoro-4-(((7-(4-fluoro-3-methoxyphenyl)-1-(4-fluorophenyl)-4,5,6,7-tetrahydro-1H-benzo[d]imidazol-2-yl)thio)methyl)benzonitrile]
1.1	> 50	COc1cc(C2CCCc3nc(SCc4c(F)cc(C(=O)O)cc4F)n(-c4ccc(F)cc4)c32)ccc1F (centres unmarked) [Example 74, 3,5-difluoro-4-(((7-(4-fluoro-3-methoxyphenyl)-1-(4-fluorophenyl)-4,5,6,7-tetrahydro-1H-benzo[d]imidazol-2-yl)thio)methyl)benzoic acid]
2.76	> 50	COCCOCCOCCOCCNC(=O)c1cc(F)c(CSc2nc3c(n2-c2ccc(F)cc2)C(c2ccc(F)c(OC)c2)CCC3)c(F)c1 (centres unmarked) [Example 75, 3,5-difluoro-4-(((7-(4-fluoro-3-methoxyphenyl)-1-(4-fluorophenyl)-4,5,6,7-tetrahydro-1H-benzo[d]imidazol-2-yl)thio)methyl)-N-(2,5,8,11-tetraoxatridecan-13-yl)benzamide]
2.94	19.2	COc1cc(C2(C)CCCc3nc(SCc4c(F)cc(OCCN(C)C)cc4F)n(-c4ccc(F)cc4)c32)ccc1Cl (centres unmarked) [Example 80, 2-(4-((7-(4-chloro-3-methoxyphenyl)-1-(4-fluorophenyl)-4,5,6,7-tetrahydro-7-methyl-1H-benzo[d]imidazol-2-ylthio)methyl)-3,5-difluorophenoxy)-N,N-dimethylethanamine]
